From PMC8765781, “A platform of assays for the discovery of anti-Zika small-molecules with activity in a 3D-bioprinted outer-blood-retina model” (PLoS ONE, 2022)
Like-named read-outs stand apart in the source and are kept apart here.

Assays:
in vitro [1] = details: African green monkey
[2] = system: wild-type ZIKV (Ugandan MR766 strain) in Vero cells; assay: ZIKV cytopathic effect (CPE) inhibition qHTS assay, CellTiter-Glo readout; type: cell-based, Zika virus; details: for AC50 / IC50: Zika virus; for IC50: read-out: ZIKV-infection (CPE, ZIKV Antiviral Assays), IC50
in vitro [3] = details: human
[4] = system: ZIKV-RLuc (Cambodian strain FSS13025); assay: microbe, parasite or virus in culture; type: cell-based, Zika virus; details: for IC50 / AC50: Zika virus, Vero; for IC50: 48 h, read-out: Rluc-ZIKV (ZIKV Antiviral Assays), IC50
[5] = system: caspase-3 activity induced by ZIKV in Vero cells; assay: cells; type: cell-based; details: Zika virus, read-out: Caspase 3 (ZIKV Antiviral Assays), IC50
[6] = system: ZIKV-mCherry (Cambodian strain FSS13025); assay: microbe, parasite or virus in culture; type: cell-based, Zika virus; details: for AC50: Zika virus, Vero
[7] = system: mCherry-ZIKV in human neuronal progenitor cells; assay: microbe, parasite or virus in culture; type: cell-based, Zika virus; details: for AC50: Zika virus, Neuronal progenitor cell
[8] = Vero, read-out: Log AC50 (M) (converted)
[9] = read-out: Log AC50 (M) (converted)

In the case of `CN[C@H](CC(C)C)C(=O)N[C@H]1C(=O)N[C@@H](CC(N)=O)C(=O)N[C@H]2C(=O)N[C@H]3C(=O)N[C@H](C(=O)N[C@H](C(=O)O)c4cc(O)cc(O)c4-c4cc3ccc4O)[C@H](O[C@H]3C[C@](C)(N)[C@@H](O)[C@H](C)O3)c3ccc(c(Cl)c3)Oc3cc2cc(c3O[C@@H]2O[C@H](CO)[C@@H](O)[C@H](O)[C@H]2O[C@H]2C[C@](C)(NCc3ccc(-c4ccc(Cl)cc4)cc3)[C@@H](O)[C@H](C)O2)Oc2ccc(cc2Cl)[C@H]1O` [NCGC00485478-01], the CC50 (in vitro [1]) is reported as > 50 µM, the Efficacy [2] is reported as -25.057 and the AC50 ([2]; Vero) is reported as 1.37e-05 M. The IC50 ([2]; Vero, 48 h) was 13.7 µM, the AC50 [2, 8] was 1.37e-05 M and the CC50 (in vitro [3]) was > 30 µM. The IC50 [4] was 12.3 µM, the IC50 ([5]; Vero, 48 h) was > 48 µM and the “CC-v2 (curve class of the dose response curve)” value [6] was 4. The “Efficacy (difference between neutral response and maximum compound response)” value [6] was 0 and the “Max Resp (difference between neutral response and response at highest compound concentration)” value [6] was -93.894.
In the case of `COc1cc2c(c(OC)c1CC=C(C)C)C[C@H](c1ccc(O)c(CC=C(C)C)c1O)CO2` [NCGC00385627-01], the CC50 at 48 h (in vitro [1]; Vero cells) is reported as > 50 µM, the Efficacy [2] is reported as -25.574 and the AC50 ([2]; Vero) is reported as 1.78e-05 M. For the same compound, the IC50 ([2]; Vero, 48 h) was 17.8 µM, the AC50 [2, 8] was 1.78e-05 M and the CC50 (in vitro [3]) was > 30 µM. The IC50 [4] was 11.5 µM, the IC50 ([5]; Vero, 48 h) was 16.3 µM and the “CC-v2 (curve class of the dose response curve)” value [6] was 4. For the same compound, the “Efficacy (difference between neutral response and maximum compound response)” value [6] was -33.338 and the “Max Resp (difference between neutral response and response at highest compound concentration)” value [6] was -100.29.
For `COc1cc2c(cc1OC)[C@@H]1[C@H](O)[C@@H](OC)C=C3CCN(C2)[C@H]31` [NCGC00384634-01], the CC50 (in vitro [1]) was > 50 µM, the “CC-v2 (curve class classification of the dose response curve)” value [2] was -1.2 and the Efficacy [2] was -55.9. For the same compound, the AC50 ([2]; Vero) was 5.7e-06 M, the IC50 ([2]; Vero, 48 h) was 5.7 µM and the AC50 [2, 8] was 5.7e-06 M. The CC50 (in vitro [3]) was > 30 µM, the IC50 [4] was 4.55 µM and the IC50 ([5]; Vero, 48 h) was 1.29 µM. For the same compound, the “CC-v2 (curve class of the dose response curve)” value [6] was -1.2, the “Efficacy (difference between neutral response and maximum compound response)” value [6] was -42.96 and the “Max Resp (difference between neutral response and response at highest compound concentration)” value [6] was -99.819. For the same compound, the AC50 [6] was 8.26e-07 M and the AC50 [6, 9] was 8.26e-07 M.
With `CC(=O)OC[C@]12[C@H](OC(C)=O)C(=O)[C@@H]3[C@@H](O)[C@@]14O[C@@]3(C)COC(=O)c1cccnc1[C@@H](C)[C@H](C)C(=O)O[C@@H]([C@H](OC(C)=O)[C@@H]2OC(C)=O)[C@]4(C)O` [NCGC00385298-01] the CC50 (in vitro [1]) was > 50 µM, the “CC-v2 (curve class classification of the dose response curve)” value [2] was -2.1 and the Efficacy [2] was -97.679. It also gave an AC50 ([2]; Vero) of 1.72e-05 M, an IC50 ([2]; Vero, 48 h) of 17.2 µM and an AC50 [2, 8] of 1.72e-05 M. For the same compound, the CC50 (in vitro [3]) was > 30 µM, the “CC-v2 (curve class classification v2 of the dose response curve)” value [4] was -2.3 and the “Efficacy (difference between neutral response and maximum compound response)” value [4] was -117.521. The “Max Resp (difference between neutral response and compound response for highest compound concentration)” value [4] was -98.025, the AC50 [4] was 9.81e-06 M and the IC50 [4] was 9.81 µM. The AC50 [4, 9] was 9.81e-06 M, the IC50 ([5]; Vero, 48 h) was 9.86 µM and the AC50 (Vero cells) was 9.81 µM. The “Log AC50 (M)” value (Vero cells) was -5.0083 M, the “CC-v2 (curve class of the dose response curve)” value [6] was -1.3 and the “Efficacy (difference between neutral response and maximum compound response)” value [6] was -66.581. The “Max Resp (difference between neutral response and response at highest compound concentration)” value [6] was -100.048, the AC50 [6] was 3.53e-06 M and the AC50 [6, 9] was 3.53e-06 M.
For `COc1c(C(C)C)cc2c(c1O)[C@@]1(C(=O)O)CCCC(C)(C)C1CC2` (some centres unmarked) [NCGC00169945-03], the CC50 at 48 h (in vitro [1]) was > 50 µM, the AC50 ([2]; Vero, from Hill fit of the response curve, 50% of maximum activity response, 194 cherry-picked compounds, protocol name not given, read-out: AC50) was 1.43e-05 M and the AC50 ([2]; Vero, potency in log units (Molar) from Hill fit of the response curve, 194 cherry-picked compounds, protocol name not given, read-out: Log AC50 (converted)) was 1.43e-05 M. It also gave an IC50 ([2]; Vero cells, wild-type ZIKV MOI 1, 48 hr, unit inferred) of 14.3 µM, an Efficacy ([2]; difference between neutral response and maximum compound response) of -27.847 and a CC50 (in vitro [3]) of 12.5 µM. For the same compound, the IC50 [4] was 16.1 µM, the IC50 ([5]; ZIKV-infected Vero cells, 48 hr, unit inferred) was 20.4 µM and the “CC-v2 (curve class of the dose response curve)” value [6] was -2.3. The “Efficacy (difference between neutral response and maximum compound response)” value [6] was -78.993, the “Max Resp (difference between neutral response and response at highest compound concentration)” value [6] was -100.305 and the AC50 [6] was 1.47e-05 M. For the same compound, the AC50 [6, 9] was 1.47e-05 M.
In the case of `COc1cccc(-n2nc(C(=O)O)cc2-c2ccc(C3CCCCC3)c(Cl)c2)c1` [NCGC00379183-01], the CC50 at 48 h (in vitro [1]; Vero cells) is reported as > 50 µM, the “CC-v2 (curve class classification of the dose response curve)” value [2] is reported as -3 and the Efficacy [2] is reported as -41.012. For the same compound, the AC50 ([2]; Vero) was 2.91e-05 M, the IC50 ([2]; Vero, 48 h) was 29.1 µM and the AC50 [2, 8] was 2.91e-05 M. The CC50 (in vitro [3]) was 25.1 µM, the IC50 [4] was 18.5 µM and the “CC-v2 (curve class)” value [7] was -3. The Efficacy [7] was -112.723, the “Max Resp” value [7] was -95.876 and the AC50 [7] was 5.01e-05 M. For the same compound, the AC50 [7, 9] was 5.01e-05 M, the IC50 ([5]; Vero, 48 h) was 26.3 µM and the “CC-v2 (curve class of the dose response curve)” value [6] was 5. For the same compound, the “Efficacy (difference between neutral response and maximum compound response)” value [6] was -42.035, the “Max Resp (difference between neutral response and response at highest compound concentration)” value [6] was -100.305 and the AC50 [6] was 1.68e-05 M. It also gave an AC50 [6, 9] of 1.68e-05 M.
